Test results published in patent publication US20220117993A1, “Compounds Useful in HIV Therapy” (GlaxoSmithKline Intellectual Property (No. 2) Limited, priority 2018, published 2022).
Like-named read-outs stand apart in the source and are kept apart here.

Assays:
[1] = system: wild-type NL4-3 replication defective pseudovirus (PSV); test: microbe, parasite or virus in culture; format: cell-based; conditions: NL43, 72 h, U373 cells expressing human CD4 and CXCR4 or CCR5, luciferase signal after 3 days, mean IC50, read-out: WT IC50
[2] = system: PSV with methionine 184 to valine (M184V) substitution in the reverse transcriptase gene; test: microbe, parasite or virus in culture; format: cell-based, HIV; conditions: read-out: M184V IC50
[3] = Human immunodeficiency virus 1, 72 h

SMILES | IC50 [1] [nM] | IC50 [2, 3] [nM] | IC50 ([2]; U373 cells expressing human CD4 and CXCR4 or CCR5, luciferase signal after 3 days, mean IC50) [nM]
C#C[C@]1(CO)O[C@@H](n2cnc3c(N)nc(F)nc32)C[C@@H]1OC(=O)CCCCCCC/C=C\C/C=C\C/C=C\CC [Example 7, (9Z,12Z,15Z)-(2R,3S,5R)-5-(6-amino-2-fluoro-9H-purin-9-yl)-2-ethynyl-2-(hydroxymethyl)tetrahydrofuran-3-yl octadeca-9,12,15-trienoate] | 7.1 | 36.4 | 
C#C[C@]1(CO)O[C@@H](n2cnc3c(NC(=O)CCCCCC)nc(F)nc32)C[C@@H]1OC(=O)CCCCCC [Example 25, (2R,3S,5R)-2-ethynyl-5-(2-fluoro-6-heptanamido-9H-purin-9-yl)-2-(hydroxymethyl)tetrahydrofuran-3-yl heptanoate] | 9.4 | 43.9 | 
C#C[C@]1(CO)O[C@@H](n2cnc3c(NC(=O)CCCCCCCCC)nc(F)nc32)C[C@@H]1OC(=O)CCCCCCCCC [Example 27, (2R,3S,5R)-5-(6-decanamido-2-fluoro-9H-purin-9-yl)-2-ethynyl-2-(hydroxymethyl)tetrahydrofuran-3-yl decanoate] | 6.8 | 28.6 | 
C#C[C@]1(CO)O[C@@H](n2cnc3c(N)nc(F)nc32)C[C@@H]1OC(=O)CCCCCCCCCCCCC [Example 2, (2R,3S,5R)-5-(6-amino-2-fluoro-9H-purin-9-yl)-2-ethynyl-2-(hydroxymethyl)tetrahydrofuran-3-yl tetradecanoate] | 1.5 | 7.8 | 
C#C[C@]1(CO)O[C@@H](n2cnc3c(N)nc(F)nc32)C[C@@H]1OC(=O)C(CCCCCC)CCCCCCCC (stereo partly drawn) [Example 15, (2R,3S,5R)-5-(6-amino-2-fluoro-9H-purin-9-yl)-2-ethynyl-2-(hydroxymethyl)tetrahydrofuran-3-yl 2-hexyldecanoate] | 555 | 3120 | 
C#C[C@]1(COC(=O)OCC)O[C@@H](n2cnc3c(N)nc(F)nc32)C[C@@H]1OC(=O)CCCCCCCCCCCCCCCCC [Example 24, (2R,3S,5R)-5-(6-amino-2-fluoro-9H-purin-9-yl)-2-(((ethoxycarbonyl)oxy)methyl)-2-ethynyltetrahydrofuran-3-yl stearate] | 1270 | 2120 | 
C#C[C@]1(CO)O[C@@H](n2cnc3c(N)nc(F)nc32)C[C@@H]1OC(=O)[C@H]1CC[C@H](CCCCC)CC1 [Example 12, (2R,3S,5R)-5-(6-amino-2-fluoro-9H-purin-9-yl)-2-ethynyl-2-(hydroxymethyl)tetrahydrofuran-3-yl (1s,4S)-4-pentylcyclohexane-1-carboxylate] | 1.8 | 10.7 | 
C#C[C@]1(CO)O[C@@H](n2cnc3c(N)nc(F)nc32)C[C@@H]1OC(=O)Cc1ccccc1 [Example 10, (2R,3S,5R)-5-(6-amino-2-fluoro-9H-purin-9-yl)-2-ethynyl-2-(hydroxymethyl)tetrahydrofuran-3-yl 2-phenylacetate] | 7.2 | 26.2 | 
C#C[C@]1(COC(=O)OCCCCCC)O[C@@H](n2cnc3c(N)nc(F)nc32)C[C@@H]1OC(=O)CCCCCCCCCCCCC [Example 23, (2R,3S,5R)-5-(6-amino-2-fluoro-9H-purin-9-yl)-2-ethynyl-2-((((hexyloxy)carbonyl)oxy)methyl)tetrahydrofuran-3-yl tetradecanoate] | 1090 | 1130 | 
C#C[C@]1(CO)O[C@@H](n2cnc3c(N)nc(F)nc32)C[C@@H]1OC(=O)CCCCCC [Example 4, (2R,3S,5R)-5-(6-amino-2-fluoro-9H-purin-9-yl)-2-ethynyl-2-(hydroxymethyl)tetrahydrofuran-3-yl heptanoate] | 4.1 | 24 | 
C#C[C@]1(CO)O[C@@H](n2cnc3c(N)nc(F)nc32)C[C@@H]1OC(=O)C1CCCCC1 [Example 16, (2R,3S,5R)-5-(6-amino-2-fluoro-9H-purin-9-yl)-2-ethynyl-2-(hydroxymethyl)tetrahydrofuran-3-yl cyclohexanecarboxylate] | 3.9 | 19 | 
C#C[C@]1(CO)O[C@@H](n2cnc3c(N)nc(F)nc32)C[C@@H]1OC(=O)C(CCCC)CCCCCC (stereo partly drawn) [Example 17, (2R,3S,5R)-5-(6-amino-2-fluoro-9H-purin-9-yl)-2-ethynyl-2-(hydroxymethyl)tetrahydrofuran-3-yl 2-butyloctanoate] | 145 | 598 | 
C#C[C@]1(CO)O[C@@H](n2cnc3c(N)nc(F)nc32)C[C@@H]1OC(=O)CCC [Example 20, (2R,3S,5R)-5-(6-amino-2-fluoro-9H-purin-9-yl)-2-ethynyl-2-(hydroxymethyl)tetrahydrofuran-3-yl butyrate] | 27.7 | 124 | 
C#C[C@]1(CO)O[C@@H](n2cnc3c(N)nc(F)nc32)C[C@@H]1OC(=O)[C@H]1CC[C@H](C(C)(C)C)CC1 [Example 22, (2R,3S,5R)-5-(6-amino-2-fluoro-9H-purin-9-yl)-2-ethynyl-2-(hydroxymethyl)tetrahydrofuran-3-yl (1r,4S)-4-(tert-butyl)cyclohexane-1-carboxylate] | 2.6 | 9.3 | 
C#C[C@]1(CO)O[C@@H](n2cnc3c(NC(=O)CCCCCCCCCCCCC)nc(F)nc32)C[C@@H]1OC(=O)CC(C)(C)c1c(C)cc(C)cc1OC(C)=O [Example 28, (2R,3S,5R)-2-ethynyl-5-(2-fluoro-6-tetradecanamido-9H-purin-9-yl)-2-(hydroxymethyl)tetrahydrofuran-3-yl 3-(2-acetoxy-4,6-dimethylphenyl)-3-methylbutanoate] | 41.5 | 153 | 
C#C[C@]1(COC(=O)OCC)O[C@@H](n2cnc3c(N)nc(F)nc32)C[C@@H]1OC(=O)CCCCCCCCC [Example 9, (2R,3S,5R)-5-(6-amino-2-fluoro-9H-purin-9-yl)-2-(((ethoxycarbonyl)oxy)methyl)-2-ethynyltetrahydrofuran-3-yl decanoate] | 11.4 | 53 | 
C#C[C@]1(CO)O[C@@H](n2cnc3c(NC(=O)CCC)nc(F)nc32)C[C@@H]1OC(=O)CCC [Example 26, (2R,3S,5R)-5-(6-butyramido-2-fluoro-9H-purin-9-yl)-2-ethynyl-2-(hydroxymethyl)tetrahydrofuran-3-yl butyrate] | 102 | 465 | 
C#C[C@]1(CO)O[C@@H](n2cnc3c(N)nc(F)nc32)C[C@@H]1OC(=O)c1ccccc1 [Example 19, (2R,3S,5R)-5-(6-amino-2-fluoro-9H-purin-9-yl)-2-ethynyl-2-(hydroxymethyl)tetrahydrofuran-3-yl benzoate] | 40.8 | 197 | 
C#C[C@]1(CO)O[C@@H](n2cnc3c(N)nc(F)nc32)C[C@@H]1OC(C)=O [Example 1, (2R,3S,5R)-5-(6-amino-2-fluoro-9H-purin-9-yl)-2-ethynyl-2-(hydroxymethyl)tetrahydrofuran-3-yl acetate] | 106 | 538 | 
C#C[C@]1(CO)O[C@@H](n2cnc3c(N)nc(F)nc32)C[C@@H]1O [EFdA, 4′-ethynyl-2-fluoro-2′-deoxyadenosine, reference compound] | 6.5 |  | 35.1
C#C[C@]1(CO)O[C@@H](n2cnc3c(NC(=O)CCCCCCCCCCCCC)nc(F)nc32)C[C@@H]1OC(C)=O [Example 14, (2R,3S,5R)-2-ethynyl-5-(2-fluoro-6-tetradecanamido-9H-purin-9-yl)-2-(hydroxymethyl)tetrahydrofuran-3-yl acetate] | 11.4 | 68 | 
